Assay results taken from BindingDB's records for doi:10.1074/jbc.M606873200 (Parke-Davis Pharmaceutical Research, 1997).

Key:
Assay in all cases: Kinase Inhibition Assay
[1] = biological target: Platelet-derived growth factor receptor alpha/beta (Homo sapiens, UniProt P09619+P16234)
Experimental: (§1) The kinase activity is the enzyme activity that catalyzes the transfer of the terminal phosphate from [gamma-32P] ATP to the poly (E: Y) substrate. Nonspecific activity was defined as radioactivity retained on the filters following incubation of samples without enzyme. Specific activity was determined as total activity minus nonspecific activity.

[2] = biological target: Platelet-derived growth factor receptor beta (Homo sapiens, UniProt P09619)
Experimental: as §1

[3] = biological target: Fibroblast growth factor receptor 1 (Homo sapiens, UniProt P11362)
Experimental: as §1

[4] = biological target: Proto-oncogene tyrosine-protein kinase Src (Homo sapiens, UniProt P12931)
Experimental: as §1

[5] = biological target: Cyclin-dependent kinase 4 (Homo sapiens, UniProt P11802)
Experimental: as §1

[6] = biological target: Mitogen-activated protein kinase 1/3 (Homo sapiens, UniProt P27361+P28482)
Experimental: as §1

[7] = biological target: Protein kinase C (PKC)
Experimental: as §1

Cyclin-dependent kinase 4, sequence (P11802 whole entry): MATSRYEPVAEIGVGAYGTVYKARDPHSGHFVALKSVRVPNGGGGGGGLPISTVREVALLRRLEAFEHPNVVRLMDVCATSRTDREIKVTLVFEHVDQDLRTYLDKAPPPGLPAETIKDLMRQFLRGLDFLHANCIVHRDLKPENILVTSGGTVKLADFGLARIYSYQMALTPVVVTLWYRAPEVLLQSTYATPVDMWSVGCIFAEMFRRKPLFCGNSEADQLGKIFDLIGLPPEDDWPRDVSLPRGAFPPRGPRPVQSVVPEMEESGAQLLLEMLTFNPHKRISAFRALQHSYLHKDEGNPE
Platelet-derived growth factor receptor beta, sequence (P09619 whole entry): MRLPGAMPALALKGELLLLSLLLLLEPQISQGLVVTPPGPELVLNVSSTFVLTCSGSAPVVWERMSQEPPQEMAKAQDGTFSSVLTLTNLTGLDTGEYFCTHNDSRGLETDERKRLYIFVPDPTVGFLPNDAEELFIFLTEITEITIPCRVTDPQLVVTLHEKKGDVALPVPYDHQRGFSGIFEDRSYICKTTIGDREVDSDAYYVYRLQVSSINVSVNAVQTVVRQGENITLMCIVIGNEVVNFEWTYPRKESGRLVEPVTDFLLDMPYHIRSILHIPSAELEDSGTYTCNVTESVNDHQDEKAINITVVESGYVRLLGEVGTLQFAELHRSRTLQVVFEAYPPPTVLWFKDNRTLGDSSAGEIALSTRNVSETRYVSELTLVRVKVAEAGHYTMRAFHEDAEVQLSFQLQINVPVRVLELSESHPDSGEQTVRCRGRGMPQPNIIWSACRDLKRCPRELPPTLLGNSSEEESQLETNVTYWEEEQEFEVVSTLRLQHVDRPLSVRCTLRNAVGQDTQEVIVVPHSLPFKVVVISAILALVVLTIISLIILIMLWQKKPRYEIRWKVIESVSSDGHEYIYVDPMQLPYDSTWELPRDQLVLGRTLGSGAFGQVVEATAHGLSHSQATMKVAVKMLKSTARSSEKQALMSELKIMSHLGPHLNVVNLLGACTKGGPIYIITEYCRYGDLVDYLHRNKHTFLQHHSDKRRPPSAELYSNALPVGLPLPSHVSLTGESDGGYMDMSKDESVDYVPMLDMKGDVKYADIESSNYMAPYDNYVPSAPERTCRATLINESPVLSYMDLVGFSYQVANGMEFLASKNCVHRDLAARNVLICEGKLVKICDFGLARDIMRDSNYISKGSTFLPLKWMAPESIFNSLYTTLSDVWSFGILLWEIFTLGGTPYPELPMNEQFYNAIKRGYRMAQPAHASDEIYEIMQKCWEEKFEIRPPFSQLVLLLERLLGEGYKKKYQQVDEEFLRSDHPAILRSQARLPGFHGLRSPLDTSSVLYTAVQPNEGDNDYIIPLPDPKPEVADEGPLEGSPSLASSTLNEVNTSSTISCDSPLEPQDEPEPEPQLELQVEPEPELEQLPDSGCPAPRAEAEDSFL
Proto-oncogene tyrosine-protein kinase Src, sequence (P12931 2-536 limits assumed): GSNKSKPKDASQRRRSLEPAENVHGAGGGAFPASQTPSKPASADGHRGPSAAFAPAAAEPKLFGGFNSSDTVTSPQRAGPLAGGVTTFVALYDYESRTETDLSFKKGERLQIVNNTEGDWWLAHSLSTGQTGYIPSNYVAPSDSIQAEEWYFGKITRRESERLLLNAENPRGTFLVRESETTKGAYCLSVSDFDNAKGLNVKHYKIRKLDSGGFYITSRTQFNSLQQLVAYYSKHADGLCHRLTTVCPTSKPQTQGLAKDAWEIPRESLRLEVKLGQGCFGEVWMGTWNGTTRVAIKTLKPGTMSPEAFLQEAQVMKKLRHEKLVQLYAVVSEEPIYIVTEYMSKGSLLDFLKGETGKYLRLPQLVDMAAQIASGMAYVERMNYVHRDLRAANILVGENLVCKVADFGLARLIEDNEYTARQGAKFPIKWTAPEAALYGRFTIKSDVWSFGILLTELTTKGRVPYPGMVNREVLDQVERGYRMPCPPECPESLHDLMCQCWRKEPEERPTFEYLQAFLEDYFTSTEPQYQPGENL
Fibroblast growth factor receptor 1, sequence (P11362 whole entry): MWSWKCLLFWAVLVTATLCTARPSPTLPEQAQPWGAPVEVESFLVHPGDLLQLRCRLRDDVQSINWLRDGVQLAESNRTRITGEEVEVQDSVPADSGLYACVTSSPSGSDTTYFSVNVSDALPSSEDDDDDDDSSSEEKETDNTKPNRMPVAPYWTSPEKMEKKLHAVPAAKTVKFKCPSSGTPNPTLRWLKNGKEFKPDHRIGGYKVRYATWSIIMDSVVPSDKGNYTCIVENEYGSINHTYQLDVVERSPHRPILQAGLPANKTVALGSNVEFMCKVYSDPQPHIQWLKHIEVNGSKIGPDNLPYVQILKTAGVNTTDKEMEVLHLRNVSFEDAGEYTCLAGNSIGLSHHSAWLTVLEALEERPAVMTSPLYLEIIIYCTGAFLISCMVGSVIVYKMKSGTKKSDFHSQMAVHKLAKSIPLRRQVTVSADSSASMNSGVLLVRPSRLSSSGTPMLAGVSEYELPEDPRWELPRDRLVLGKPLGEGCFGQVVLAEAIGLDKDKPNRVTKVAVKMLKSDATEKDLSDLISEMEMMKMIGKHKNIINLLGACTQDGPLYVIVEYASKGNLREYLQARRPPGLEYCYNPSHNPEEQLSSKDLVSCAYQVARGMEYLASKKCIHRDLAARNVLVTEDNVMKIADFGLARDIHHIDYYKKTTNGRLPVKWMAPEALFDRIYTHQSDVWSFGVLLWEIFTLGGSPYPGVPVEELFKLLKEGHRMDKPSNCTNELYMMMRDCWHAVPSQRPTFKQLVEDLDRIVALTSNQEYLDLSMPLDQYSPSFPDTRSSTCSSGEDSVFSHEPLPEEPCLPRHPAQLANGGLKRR
Mitogen-activated protein kinase 1/3, sequence (P28482 whole entry): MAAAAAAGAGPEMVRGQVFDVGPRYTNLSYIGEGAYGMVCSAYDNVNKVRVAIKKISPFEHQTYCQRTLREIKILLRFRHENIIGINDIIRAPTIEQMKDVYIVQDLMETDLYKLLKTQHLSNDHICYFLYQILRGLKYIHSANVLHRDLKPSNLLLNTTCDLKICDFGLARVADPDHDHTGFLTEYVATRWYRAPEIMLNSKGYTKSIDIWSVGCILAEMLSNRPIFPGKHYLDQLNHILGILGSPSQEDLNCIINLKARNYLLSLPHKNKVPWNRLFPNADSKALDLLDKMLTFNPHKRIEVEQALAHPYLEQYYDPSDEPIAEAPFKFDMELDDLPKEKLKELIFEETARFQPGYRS
Mitogen-activated protein kinase 1/3, sequence (P27361 whole entry): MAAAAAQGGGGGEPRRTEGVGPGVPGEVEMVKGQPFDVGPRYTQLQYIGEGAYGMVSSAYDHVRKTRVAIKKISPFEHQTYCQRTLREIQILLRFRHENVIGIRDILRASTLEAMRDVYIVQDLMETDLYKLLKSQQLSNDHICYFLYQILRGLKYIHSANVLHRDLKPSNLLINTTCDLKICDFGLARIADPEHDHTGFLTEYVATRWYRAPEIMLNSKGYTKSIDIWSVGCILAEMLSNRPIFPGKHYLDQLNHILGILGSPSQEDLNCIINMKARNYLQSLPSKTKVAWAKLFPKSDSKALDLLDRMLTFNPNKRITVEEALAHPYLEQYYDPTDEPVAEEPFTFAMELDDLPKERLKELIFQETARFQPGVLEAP

| SMILES | IC50 [1] | IC50 [2] | IC50 [3] | IC50 ([2]; pH 7.4, 25 °C) | IC50 [4] | IC50 [5] | IC50 [6] | IC50 [7] |
| --- | --- | --- | --- | --- | --- | --- | --- | --- |
| COc1cccc(-c2cc3cnc(N)nc3nc2NC(=O)NC(C)(C)C)c1 [1-[2-amino-6-(3-methoxyphenyl)pyrido[2,3-d]pyrimidin-7-yl]-3-tert-butylurea] | 22.9 µM | 22.9 µM | 360 nM | – | – | – | – | – |
| CC(C)(C)NC(=O)Nc1nc2nc(N)ncc2cc1-c1cc(C(F)(F)F)cc(C(F)(F)F)c1 [1-{2-amino-6-[3,5-bis(trifluoromethyl)phenyl]pyrido[2,3-d]pyrimidin-7-yl}-3-tert-butylurea] | > 50 µM | – | > 50000 nM | > 50 µM | > 50 µM | – | – | – |
| COc1cc(OC)cc(-c2cc3cnc(N)nc3nc2NC(=O)NC(C)(C)C)c1 [6-arylpyrido[2,3-d]pyrimidine deriv. 25] | – | – | 60 nM | – | – | > 40 µM | – | – |
| COc1ccccc1-c1cc2cnc(N)nc2nc1NC(=O)NC(C)(C)C [1-[2-amino-6-(2-methoxyphenyl)pyrido[2,3-d]pyrimidin-7-yl]-3-tert-butylurea] | 4.48 µM | – | – | 4.48 µM | 10.4 µM | – | – | – |
| Cc1c(C)c(C)c(-c2cc3cnc(N)nc3nc2NC(=O)NC(C)(C)C)c(C)c1C [1-[2-amino-6-(2,3,4,5,6-pentamethylphenyl)pyrido[2,3-d]pyrimidin-7-yl]-3-tert-butylurea] | > 50 µM | – | 1620 nM | > 50 µM | > 50 µM | – | – | – |
| Cc1cc(C)c(-c2cc3cnc(N)nc3nc2NC(=O)NC(C)(C)C)c(C)c1 [1-[2-amino-6-(2,4,6-trimethylphenyl)pyrido[2,3-d]pyrimidin-7-yl]-3-tert-butylurea] | 1.47 µM | – | 270 nM | 1.47 µM | 0.36 µM | – | – | – |
| COc1ccc(-c2cc3cnc(N)nc3nc2NC(=O)NC(C)(C)C)cc1 [1-[2-amino-6-(4-methoxyphenyl)pyrido[2,3-d]pyrimidin-7-yl]-3-tert-butylurea] | 2.89 µM | 2.89 µM | 3970 nM | – | > 50 µM | – | – | – |
| CCc1cc(CC)cc(-c2cc3cnc(N)nc3nc2NC(=O)NC(C)(C)C)c1 [1-[2-amino-6-(3,5-diethylphenyl)pyrido[2,3-d]pyrimidin-7-yl]-3-tert-butylurea] | > 50 µM | – | 7760 nM | > 50 µM | > 50 µM | – | – | – |
| CCN(CC)CCOc1ccc(C)c(-c2cc3cnc(N)nc3nc2NC(=O)NC(C)(C)C)c1C [1-(2-amino-6-{3-[2-(diethylamino)ethoxy]-2,6-dimethylphenyl}pyrido[2,3-d]pyrimidin-7-yl)-3-tert-butylurea] | 11.8 µM | – | 890 nM | 11.8 µM | 1.65 µM | – | – | – |
| Cc1ccc(-c2cc3cnc(N)nc3nc2NC(=O)NC(C)(C)C)cc1 [1-[2-amino-6-(4-methylphenyl)pyrido[2,3-d]pyrimidin-7-yl]-3-tert-butylurea] | 6.31 µM | – | 1670 nM | 6.31 µM | 17.5 µM | – | – | – |
| CC(C)(C)NC(=O)Nc1nc2nc(N)ncc2cc1-c1c(Br)cccc1Br [1-[2-Amino-6-(2,6-dibromo-phenyl)-pyrido-[2,3-d]pyrimidin-7-yl]-3-tert-butyl-urea] | 1.42 µM | – | 290 nM | 1.42 µM | 0.21 µM | – | – | – |
| Cc1ccccc1-c1cc2cnc(N)nc2nc1NC(=O)NC(C)(C)C [1-[2-amino-6-(2-methylphenyl)pyrido[2,3-d]pyrimidin-7-yl]-3-tert-butylurea] | 1.05 µM | – | – | 1.05 µM | – | – | – | – |
| CC(C)(C)NC(=O)Nc1nc2nc(N)ncc2cc1-c1c(Cl)cccc1Cl | 1.25 µM | – | – | 1.25 µM | – | > 50 µM | 7.1 µM | – |
| Cc1cc(C)c(C)c(-c2cc3cnc(N)nc3nc2NC(=O)NC(C)(C)C)c1C [1-[2-amino-6-(2,3,5,6-tetramethylphenyl)pyrido[2,3-d]pyrimidin-7-yl]-3-tert-butylurea] | > 50 µM | – | – | > 50 µM | – | > 40 µM | > 50 µM | > 50 µM |
| Cc1cc(C)cc(-c2cc3cnc(N)nc3nc2NC(=O)NC(C)(C)C)c1 [1-[2-amino-6-(3,5-dimethylphenyl)pyrido[2,3-d]pyrimidin-7-yl]-3-tert-butylurea] | 52.9 µM | – | 1130 nM | 52.9 µM | > 50 µM | – | – | – |
| CC(C)(C)NC(=O)Nc1nc2nc(N)ncc2cc1-c1c(Cl)cccc1Br [1-[2-amino-6-(2-bromo-6-chlorophenyl)pyrido[2,3-d]pyrimidin-7-yl]-3-tert-butylurea] | 0.62 µM | – | – | 0.62 µM | 0.21 µM | – | – | – |
| Cc1cccc(-c2cc3cnc(N)nc3nc2NC(=O)NC(C)(C)C)c1C [1-[2-amino-6-(2,3-dimethylphenyl)pyrido[2,3-d]pyrimidin-7-yl]-3-tert-butylurea] | 6.05 µM | – | – | 6.05 µM | – | – | – | – |
| CC(C)(C)NC(=O)Nc1nc2nc(N)ncc2cc1-c1cc(F)cc(F)c1 [1-[2-amino-6-(3,5-difluorophenyl)pyrido[2,3-d]pyrimidin-7-yl]-3-tert-butylurea] | 8.97 µM | – | 1100 nM | 8.97 µM | 1.35 µM | – | – | – |
| CC(C)(C)NC(=O)Nc1nc2nc(N)ncc2cc1-c1c(F)cccc1F [1-[2-amino-6-(2,6-difluorophenyl)pyrido[2,3-d]pyrimidin-7-yl]-3-tert-butylurea] | 1.67 µM | – | 110 nM | 1.67 µM | 0.8 µM | – | – | – |
| CC(C)(C)NC(=O)Nc1nc2nc(N)ncc2cc1-c1c(Cl)ccc(Cl)c1Cl [1-[2-amino-6-(2,3,6-trichlorophenyl)pyrido[2,3-d]pyrimidin-7-yl]-3-tert-butylurea] | 2.96 µM | – | 110 nM | 2.96 µM | – | – | – | – |
| CC(C)(C)NC(=O)Nc1nc2nc(N)ncc2cc1-c1ccccc1 [1-{2-amino-6-phenylpyrido[2,3-d]pyrimidin-7-yl}-3-tert-butylurea] | 13.2 µM | – | 8000 nM | 13.2 µM | 19.3 µM | – | – | – |
| CN(C)c1cc(-c2cc3cnc(N)nc3nc2NC(=O)NC(C)(C)C)cc(N(C)C)c1 | > 50 µM | > 50 µM | 16000 nM | – | > 50 µM | – | – | – |
| CC(C)(C)NC(=O)Nc1nc2nc(N)ncc2cc1-c1cccc(Cl)c1Cl [1-[2-amino-6-(2,3-dichlorophenyl)pyrido[2,3-d]pyrimidin-7-yl]-3-tert-butylurea] | 2.26 µM | – | 160 nM | 2.26 µM | 4.41 µM | – | – | – |
| CCc1ccccc1-c1cc2cnc(N)nc2nc1NC(=O)NC(C)(C)C [1-[2-amino-6-(2-ethylphenyl)pyrido[2,3-d]pyrimidin-7-yl]-3-tert-butylurea] | 4.48 µM | – | 11200 nM | 4.48 µM | 10.4 µM | – | – | – |
| CCOc1cccc(-c2cc3cnc(N)nc3nc2NC(=O)NC(C)(C)C)c1 [1-[2-amino-6-(3-ethoxyphenyl)pyrido[2,3-d]pyrimidin-7-yl]-3-tert-butylurea] | 23 µM | 23 µM | 670 nM | – | > 50 µM | – | – | – |
| COc1ccc(-c2cc3cnc(N)nc3nc2NC(=O)NC(C)(C)C)cc1OC [1-[2-amino-6-(3,4-dimethoxyphenyl)pyrido[2,3-d]pyrimidin-7-yl]-3-tert-butylurea] | > 50 µM | > 50 µM | 20200 nM | – | > 50 µM | – | – | – |
| CCOc1cc(OCC)cc(-c2cc3cnc(N)nc3nc2NC(=O)NC(C)(C)C)c1 [1-[2-amino-6-(3,5-diethoxyphenyl)pyrido[2,3-d]pyrimidin-7-yl]-3-tert-butylurea] | > 50 µM | > 50 µM | 1650 nM | – | > 50 µM | – | – | – |
